Test results as given in US11964984B2, “TXNIP-TRX complex inhibitors and methods of using the same” (CITY OF HOPE, priority 2020, dated 2024).

Test system: TNF-α mRNA
Assay: TNF-α mRNA expression in murine RAW macrophages (RT-PCR)
Format: cell-based, mouse
Details: RAW264.7 cells, 25 mM glucose, 72 hours
Protocol: FIGS. 3A-3B. FIG. 3A: C30 and C38 inhibited TXNIP mRNA expression in murine RAW macrophages. RAW cells were cultured under 25 mM glucose with various concentration of C30 and C38 as indicated for 72 hours. Total RNA was prepared. RT-PCR was performed and data shown are the mean±SEM from triplicates. Statistical analysis was performed for each column vs. high glucose (HG) DMSO using one-way ANOVA: *p<0.0001. FIG. 3B: Treatment with C30 and C38 decreased TNF-α mRNA expression in murine RAW macrophages. RAW cells were cultured under 25 mM glucose with various concentration of C30 and C38 as indicated for 72 hours. Total RNA was prepared. RT-PCR was performed and data shown are the mean±SEM from triplicates. Statistical analysis was performed for each column vs. HG DMSO using one-way ANOVA: *p<0.0001.
Treatment of murine RAW macrophages with lead compounds C30 and C38 decreased TXNIP and TNF-α. We have also tested the effects of the lead compound in murine RAW264.7 (RAW) macrophages. As in human THP1 cells, C30 and C38 inhibited TXNIP and TNF-α mRNA expression in mouse RAW cells (FIGS. 3A-3B) showing they are also effective in mouse cells. […]
RNA extraction and quantitative RT-PCR. […] Diluted cDNA was quantified using real-time PCR performed with Power SYBR Green qPCR MasterMix (Applied Biosystem) and 7500 real-time PCR system (Applied Biosystems). […]

## c1ccc(CCNc2ncnc3c2oc2ccccc23)cc1 [Compound C38]
  TNF-α mRNA expression: inhibited

## COc1cc(N2CC[C@@H](c3ccc4ccccc4c3)[C@H](O)C2)nc(N)n1 [Compound C30]
  TNF-α mRNA expression: inhibited
